test system: venous thrombosis; experiment: venous thrombosis test in rats (venous stasis with hypercoagulation, Wessler technique, factor Xa), oral administration; format: in vivo; details: dose 6 mg/kg, thrombosis induced 2 h after administration, male Wistar rats
Procedure: The antithrombotic activity of the compounds according to the invention was studied in vivo in rats by virtue of a test that reproduces a venous thrombosis. The venous thrombosis was induced according to the protocol described in Thromb. Haemost. 1992, 67 (1), 176-179. The activity by oral administration was studied according to the following operating protocol: The experiment is carried out on male Wistar rats, not fasting, weighing 250 to 280 g and divided up into groups, each of 8 to 10 animals. The test products are administered orally (by tube) in solution or in suspension in a solution of methylcellulose (0.5% in water). The concentration of the compounds is calculated such that an amount of solution of 10 ml/kg is absorbed orally. A thrombosis is induced at a time T (between 2 hours and 8 hours) after administration of the product, and the thrombus formed is removed and weighed. In order to induce this thrombosis, a venous stasis with hypercoagulation is produced, according to the technique described by WESSLER (J. Applied Physiol. 1959, 943-946) using, as hypercoagulating agent, a solution of activated factor X (Xa), supplied by the company Biogenic (Montpellier), and having a concentration of 7.5 nKat/kg. The venous stasis is produced exactly 10 seconds after the injection of the hypercoagulating agent. The activity of the compounds tested was verified at various doses, after they were administered. The thrombosis was induced between 2 hours and 8 hours after administration of the compound.

Row | SMILES | Activity (%): percentage inhibition of the formation of the thrombus relative to the weight of the thrombus formed in the absence of the compound [%]
1 | Cc1cn2cccc(O[C@@H]3SC[C@@H](O)[C@H](O)[C@H]3O)c2n1 [Example 2, 2-methylimidazo[1,2-α]pyridin-8-yl 5-thio-β-D-xylopyranoside] | 94
2 | O=C(O)C(F)(F)F.O=C(O)Cc1cn2cccc(O[C@@H]3SC[C@@H](O)[C@H](O)[C@H]3O)c2n1 [Example 43, 8-[(5-thio-β-D-xylopyranosyl)oxy]-imidazo[1,2-α]pyridine-2-acetic acid, salt with trifluoroacetic acid] | 53
3 | CC(=O)c1cc2cccc(O[C@@H]3SC[C@@H](O)[C@H](O)[C@H]3O)c2o1 [Example 8, 2-acetyl-7-benzofuranyl 5-thio-β-D-xylopyranoside] | 91
4 | O[C@@H]1[C@@H](O)[C@H](Oc2cccc3ocnc23)SC[C@H]1O [Example 16, 4-benzoxazolyl 5-thio-β-D-xylopyranoside] | 80
5 | O[C@@H]1[C@@H](O)[C@H](Oc2cccn3ncnc23)SC[C@H]1O [Example 39, [1,2,4]triazolo[1,5-a]pyridin-8-yl 5-thio-β-D-xylopyranoside] | 100
6 | Cc1nc2cc(O[C@@H]3SC[C@@H](O)[C@H](O)[C@H]3O)ccc2s1 [Example 12, 2-methyl-5-benzothiazolyl 5-thio-β-D-xylopyranoside] | 74
7 | O[C@@H]1[C@@H](O)[C@H](Oc2cccc3ccoc23)SC[C@H]1O [Example 18, 7-benzofuranyl 5-thio-β-D-xylopyranoside] | 62

From US7652032B2, “5-Thioxylopyranose compounds” (Laboratoires Fournier S.A., priority 2007, dated 2010)
